System: ruminal fluid
Experiment: in vitro batch culture incubations: VFA, ammonia-N, pH (Example 4)
Type: cell-based, Angus crossbred steers
Details: corn silage-based diet
Protocol: In this example, an in vitro assay was performed using batch culture incubations, aiming to simulate rumen fermentation.
Two ruminally cannulated Angus crossbred steers (808.8±36.3 kg body weight) were used as ruminal fluid donors for the in vitro batch culture incubations. The steers were fed a corn silage and gin trash diet (70% and 30% on a dry matter basis, respectively) ad libitum at least 35 days before collecting ruminal fluid to perform the in vitro incubations. Each steer received a NPN-mixture equivalent to 100 g of urea per day comprised of an equal amount of N from the different NPN sources to adapt the rumen microbial community. Thus, each steer was fed daily 33 g of urea (46 wt. % N) or 37 g of a urea-biuret mixture according to the present disclosure (UB) comprising 41 wt. % N. These amounts were mixed in with the feed diet every two days.
The in vitro batch culture incubations were conducted as a randomized complete block design using 70 wt. % corn silage and 30 wt. % gin trash on a dry matter basis conserving the diet characteristics used during the animal adaptation period. The treatments were designed to be isonitrogenous (=having the same amount of dietary nitrogen) and equivalent to 1 wt. % of urea inclusion. The NPN treatments were consequently as follows: • Control without NPN-supplementation (“control”); • 100 wt % urea (Rumisan®) (“urea”); • 100 wt % of a urea/biuret mixture according to the present application (“UB”).
The in vitro incubations were conducted on three separate days (replicates). A representative sample of digesta was collected from different places in the rumen of ruminally cannulated steers and strained through 4 layers of cheesecloth, placed in pre-warmed thermos containers, and transported to the laboratory within 30 minutes after the collection. In the laboratory, the ruminal fluid from the two steers was maintained under constant CO2-flux and was combined in equal proportions. This combined ruminal fluid was mixed with McDougall's buffer (McDougall, 1948) with and without 0.077 g/liter of 10 wt. % ammonium sulfate enriched with ^15N in relation 1:4, and it was used as an inoculum. Two bottles of 500 ml fitted with a side arm and a rubber septum were incubated per treatment. The bottles contained 5.6 g of substrate dry matter and 400 ml of ^15N enriched inoculum, and were incubated for 24 hours at 39° C. with an agitation of 60 rpm to monitor gas production kinetics using an Ankom Gas Monitoring System from Ankom Technologies, Fairport, New York. Also, one 500-ml bottle without 15N enriched inoculum was incubated to determine the basal ^15N enrichment. At 12 hours of incubation, two samples of 10 ml of rumen fluid were collected from each bottle through the septa port using a 20-ml syringe. These samples were acidified by adding 10 μl of a 20 vol/vol % of H2SO4-solution to each 10-ml sample, and frozen at minus 20° C. until further analysis. At the end of the 24 hours incubation, the final pH was recorded, the bottles were placed on ice to prevent further microbial fermentation and two 10-ml samples were collected and acidified by adding 20 μl of a 20 vol/vol % of H2SO4-solution and were frozen at minus 20° C. until further analysis. The remaining fermentation content was thereafter agitated at 60 rpm for 30 seconds and divided into two subsamples. […]

[1] = 12 hours of incubation, equivalent to 1 wt. % urea

For `NC(N)=O` [Urea, urea], the Ammonia-N [1] was 2.74 mM, the “Total VFA” value [1] was 31.77 mM and the Ammonia-N (24 hours of incubation) was 6.55 mM. The “Total VFA” value (24 hours of incubation) was 40.96 mM and the pH (24 hours of incubation) was 6.38.

— patent US20250161245A1, “A MIXTURE OF UREA, BIURET AND N-CONTAINING BY-PRODUCTS CREATED DURING BIURET PRODUCTION AS A DIETARY NON-PROTEIN NITROGEN-SOURCE FOR RUMINANTS AND USES THEREOF” (Yara International ASA, priority 2022, published 2025)
